# Reference: patent US20010010818A1, “Methods and formulations for reducing circulating antibodies” (priority 1998, published 2001)
# Key:
# anti-αGal Ig [1] = assay: Removal of anti-αGal Ig from serum by αGal epitope on resin (Sepharose), measured by FACS; assay type: binding, rhesus monkey; conditions: epitope on resin (coupled to Sepharose)
# Description: (§1) Antibodies. Blood was drawn from healthy normal volunteers. Plasma was separated by centrifugation and allowed to clot. Fibrin was removed and plasma was used immediately or stored in aliquots at −70° C. Rhesus monkey serum (California Regional Primate Research Center, Davis, Calif.) was obtained from blood drawn into vacutainer tubes and allowed to clot. After serum was separated by centrifugation, it was pooled, aliquoted and stored at −20° C. or −70° C. In some experiments, sera was heat-inactivated at 56° C. for 30 minutes to destroy complement hemolytic activity. Antibodies to the αGal epitope were affinity purified on an αGal-Sepharose column, which was prepared by coupling αGal-SH to maleimide-Sepharose (Pierce) through Michael addition chemistry at 10 mg/mL resin. Up to 20 mL pooled NHS […] was applied to a 2 mL volume of packed αGal-Sepharose. After the flow through was collected, the column was washed with 10-20 column volumes or until A280 reached baseline values and eluted with 0.1 M triethanolamine, pH 11.5 into tubes containing 1 M Tris, pH 8.0. The column was immediately washed with 10-20 volumes of phosphate-buffered saline (PBS). Fractions were assessed for protein concentration by Bradford assay. Peak fractions were pooled and dialyzed against PBS. […]
# anti-αGal Ig [2] = assay: as above; assay type: binding, human; conditions: epitope on resin (coupled to Sepharose)
# Description: as §1
structure (smiles),measurement,setting,value
"OC[C@H]1O[C@H](O[C@H]2[C@@H](O)[C@@H](CO)O[C@@H](OCCOCCOCCS)[C@@H]2O)[C@H](O)[C@@H](O)[C@H]1O [αGal epitope, 2-[2-(2-thioethoxy)ethoxy]ethyl 3-O-(α-D-galactopyranosyl)-β-D-galactopyranoside]",removal of anti-αGal Ig from normal rhesus monkey serum,anti-αGal Ig [1],> 95%
same,removal of anti-αGal Ig from human serum,anti-αGal Ig [2],> 95%
